Data as given in patent CN110711192A, “色氨酸增强对革兰氏阴性菌杀菌作用的应用” (Shandong University, priority 2018, dated 2020).
Converted amounts (≈) assume the structure as drawn.

Legend:
[1] = test system: sensitive strain MG1655 [敏感菌株MG1655]; test: Minimum inhibitory concentration, sensitive strain MG1655; assay type: cell-based; conditions: Escherichia coli, serial dilution, 96-well plate, broth
[2] = test system: resistant strain EY1 [抗性菌EY1]; test: Minimum inhibitory concentration, resistant strain EY1; assay type: cell-based; conditions: serial dilution, 96-well plate, broth
MG1655 [3] = test: Uptake of Texas Red-labelled gentamicin (flow cytometry); assay type: cell-based, Escherichia coli; conditions: log and stationary phase, 0, 1, 5, 10 mM tryptophan
[4] = test system: MG1655 drug-tolerant bacteria [耐药菌]; test: Killing of drug-tolerant bacteria (viable count); assay type: cell-based, Escherichia coli; conditions: after gentamicin 60 mg/L or kanamycin 40 mg/L 5 h; then antibiotic + 5 mM tryptophan 5 h; printed as can reach (可以达到)
[5] = test system: Escherichia coli MG1655 [大肠杆菌MG1655]; test: Bactericidal effect of antibiotic with or without tryptophan (viable count); assay type: cell-based
MG1655 [6] = test: Intracellular reactive oxygen species (H2DCFDA); assay type: cell-based, Escherichia coli; conditions: log and stationary phase; 60 mg/L gentamicin alone or with 5 mM tryptophan, 1 h
MG1655 [7] = test: Rate of generation of drug-tolerant bacteria (viable count); assay type: cell-based, Escherichia coli; conditions: cultures of 3 to 9 h; gentamicin 60 mg/L and kanamycin 40 mg/L 5 h, then various tryptophan concentrations 30 min; concentration-dependent; printed as up to (可达)

| SMILES | MIC [1] | MIC [2] | bacterial uptake of antibiotic (MG1655 [3]) | bactericidal efficiency against drug-tolerant bacteria [4] | increase of bactericidal effect versus group without tryptophan ([5]; 5 mM tryptophan with gentamicin 3 mg/L and MIC 4 mg/L, 24 h, logarithmic phase) | increase of bactericidal effect ([5]; 5 mM tryptophan with kanamycin 1.5 mg/L to MIC 3.5 mg/L, 24 h, logarithmic phase) | increase of bactericidal efficiency ([5]; stationary phase MG1655, 5 mM tryptophan with gentamicin 60 mg/L or kanamycin 40 mg/L, 1 h per figure legend, 24 h per example) | intracellular reactive oxygen species level (MG1655 [6]) | reduction of generation of drug-tolerant bacteria (MG1655 [7]) |
| --- | --- | --- | --- | --- | --- | --- | --- | --- | --- |
| NC[C@H]1O[C@H](O[C@H]2[C@H](O)[C@@H](O[C@H]3O[C@H](CO)[C@@H](O)[C@H](N)[C@H]3O)[C@H](N)C[C@@H]2N)[C@H](O)[C@@H](O)[C@@H]1O [卡那霉素] | 3.5 µg/mL (≈ 7.22 µM) | 220 µg/mL (≈ 454 µM) |  |  |  |  |  |  |  |
| N[C@@H](Cc1c[nH]c2ccccc12)C(=O)O [色氨酸] |  |  | 能够提升细菌对于抗生素的吸收,并呈现剂量依赖性 | 80-90% | 100 fold | 10-100 fold | ~10 fold | 能够提高胞内活性氧的水平 | 10-1000 fold |
